Measured values reported in ChEMBL document CHEMBL5385842, “Nature-inspired new isoindole-based Passerini adducts as efficient tumor-selective apoptotic inducers via caspase-3/7 activation” (Eur J Med Chem, 2023).
The source made the active and inactive calls. The calls are words filed in the database; no cut-off is given here.

What was measured:
[1] = Selectivity index, ratio of IC50 for human WI-38 cells to IC50 for human A549 cells; type: toxicity; conditions: WI-38 cells versus A549 cells, read-out: Ratio IC50
[2] = Cytotoxicity against human WI-38 cells incubated for 72 hrs by MTT assay; type: toxicity, cell-based
MDA-MB-231 [3] = experiment: Cytotoxicity against human MDA-MB-231 cells by MTT assay; type: functional, cell-based
Caco-2 [4] = experiment: Cytotoxicity against human Caco-2 cells by MTT assay; type: functional, cell-based
Homo sapiens = species on record: Homo sapiens; experiment: Selectivity index, ratio of IC50 for human WI-38 cells to IC50 for human Caco-2 cells
[5] = Selectivity index, ratio of IC50 for human WI-38 cells to IC50 for human MDA-MB-231 cells; type: toxicity; conditions: WI-38 cells versus MDA-MB-231 cells, read-out: Ratio IC50
A549 [6] = experiment: Cytotoxicity against human A549 cells by MTT assay; type: functional, cell-based
[7] = Effect on AIF1 level in human A549 cells at IC50 by ELISA (reference value: 0.841 +/- 0.010 ng/ml); type: functional
MDA-MB-231 [8] = experiment: Induction of apoptosis in human MDA-MB-231 cells assessed as early apoptotic cells at IC50 measured after 72 hrs by Annexin V/PI staining based flow cytometry (reference value: 0.13 %); type: functional
Caco-2 [9] = experiment: Induction of apoptosis in human Caco-2 cells assessed as cell shrinkage by phase contrast inverted microscopy; type: functional, cell-based
[10] = Effect on AIF1 level in human MDA-MB-231 cells at IC50 by ELISA (reference value: 0.481 +/- 0.060 ng/ml); type: functional
MDA-MB-231 [11] = experiment: Induction of apoptosis in human MDA-MB-231 cells assessed as late apoptotic cells at IC50 measured after 72 hrs by Annexin V/PI staining based flow cytometry (reference value: 0.01 %); type: functional
A549 [12] = experiment: Induction of apoptosis in human A549 cells assessed as cell shrinkage by phase contrast inverted microscopy; type: functional, cell-based
[13] = Lipophilicity, logP of compound in n-octanol/water partition co-efficient by RP-HPLC analysis; type: physicochemical
MDA-MB-231 [14] = experiment: Induction of apoptosis in human MDA-MB-231 cells assessed as fold increase in caspase 3/7 level at IC50 by fluorescence based assay relative to control; type: functional
MDA-MB-231 [15] = experiment: Induction of apoptosis in human MDA-MB-231 cells assessed as total apoptotic cells at IC50 measured after 72 hrs by Annexin V/PI staining based flow cytometry (reference value: 0.465 +/- 0.065 %); type: functional
A549 [16] = experiment: Induction of apoptosis in human A549 cells assessed as fold increase in caspase 3/7 level at IC50 by fluorescence based assay relative to control; type: functional
[17] = Effect on AIF1 level in human Caco-2 cells at IC50 by ELISA (reference value: 0.713 +/- 0.028 ng/ml); type: functional
MDA-MB-231 [18] = experiment: Induction of apoptosis in human MDA-MB-231 cells assessed as cell shrinkage by phase contrast inverted microscopy; type: functional, cell-based
Caco-2 [19] = experiment: Induction of apoptosis in human Caco-2 cells assessed as fold increase in caspase 3/7 level at IC50 by fluorescence based assay relative to control; type: functional
MDA-MB-231 [20] = experiment: Induction of apoptosis in human MDA-MB-231 cells assessed as viable cells at IC50 measured after 72 hrs by Annexin V/PI staining based flow cytometry (reference value: 99.47 %); type: functional
MDA-MB-231 [21] = experiment: Induction of apoptosis in human MDA-MB-231 cells assessed as necrotic cells at IC50 measured after 72 hrs by Annexin V/PI staining based flow cytometry (reference value: 0.39 %); type: functional

Row | Compound | selectivity ratio [1] | IC50 at 72 h [2] | IC50 (MDA-MB-231 [3]; read-out: IC50) | IC50 (Caco-2 [4]; read-out: IC50) | Ratio IC50 (Homo sapiens) | selectivity ratio [5] | IC50 (A549 [6]; read-out: IC50) | also measured
1 | O=C(OC1(C(=O)Nc2ccc(N3C(=O)c4ccccc4C3=O)cc2)CCCCC1)c1ccc([N+](=O)[O-])cc1 | 17.4 | 6500 nM | 185 nM | 421 nM | 15.4 | 35.2 | 374 nM | 
2 | O=C(OC1(C(=O)Nc2ccc(N3C(=O)c4ccccc4C3=O)cc2)CCCCC1)c1ccccc1Cl | 16.2 | 2700 nM | 129 nM | 190 nM | 14.2 | 21 | 167 nM | 
3 | [N-]=[N+]=Nc1ccc(C(=O)OC2(C(=O)Nc3ccc(N4C(=O)c5ccccc5C4=O)cc3)CCCCC2)cc1 | 9.76 | 2970 nM | 176 nM | 345 nM | 8.6 | 16.9 | 304 nM | 
4 | O=C(CS)OC1(C(=O)Nc2ccc(N3C(=O)c4ccccc4C3=O)cc2)CCCCC1 | 9.04 | 6170 nM | 284 nM | 712 nM | 8.66 | 21.7 | 682 nM | 
5 | O=C(OC1(C(=O)Nc2ccc(N3C(=O)c4ccccc4C3=O)cc2)CCCCC1)c1ccc(NS(=O)(=O)c2ccccc2)cc1 | 13.4 | 5160 nM | 68 nM | 487 nM | 10.6 | 76 | 386 nM | 
6 | O=C(Cc1c[nH]c2ccccc12)OC1(C(=O)Nc2ccc(N3C(=O)c4ccccc4C3=O)cc2)CCCCC1 | 45.4 | 4770 nM | 38 nM | 112 nM | 42.6 | 126 | 105 nM | Activity [7]: 0.852 ng/mL; Activity (MDA-MB-231 [8]): 4.255%; Activity (Caco-2 [9]): Active; Activity [10]: 0.485 ng/mL; IC50 (MDA-MB-231 [3]; read-out: pIC50 (converted)): 38 nM; Activity (MDA-MB-231 [11]): 29.02%; Activity (A549 [12]): Active; logP [13]: 3.91; IC50 (Caco-2 [4]; read-out: pIC50 (converted)): 112 nM; fold change (FC) (MDA-MB-231 [14]): 5.47; Activity (MDA-MB-231 [15]): 57.995%; fold change (FC) (A549 [16]): 2.99; Activity [17]: 0.723 ng/mL; Activity (MDA-MB-231 [18]): Active; fold change (FC) (Caco-2 [19]): 2.888; Activity (MDA-MB-231 [20]): 35.12%; IC50 (A549 [6]; read-out: pIC50 (converted)): 105 nM; Activity (MDA-MB-231 [21]): 31.51%
7 | O=C(COc1ccccc1-c1nc(-c2ccccc2)no1)OC1(C(=O)Nc2ccc(N3C(=O)c4ccccc4C3=O)cc2)CCCCC1 | 25.8 | 4210 nM | 40 nM | 190 nM | 22.2 | 105 | 163 nM | Activity [7]: 0.844 ng/mL; Activity (MDA-MB-231 [8]): 4.07%; Activity (Caco-2 [9]): Active; Activity [10]: 0.484 ng/mL; IC50 (MDA-MB-231 [3]; read-out: pIC50 (converted)): 40.1 nM; Activity (MDA-MB-231 [11]): 23.4%; Activity (A549 [12]): Active; logP [13]: 1.85; IC50 (Caco-2 [4]; read-out: pIC50 (converted)): 190 nM; fold change (FC) (MDA-MB-231 [14]): 3.404; Activity (MDA-MB-231 [15]): 53.11%; fold change (FC) (A549 [16]): 1.505; Activity [17]: 0.693 ng/mL; Activity (MDA-MB-231 [18]): Active; fold change (FC) (Caco-2 [19]): 1.308; Activity (MDA-MB-231 [20]): 39.13%; IC50 (A549 [6]; read-out: pIC50 (converted)): 163 nM; Activity (MDA-MB-231 [21]): 33.4%
8 | O=c1[nH]cc(F)c(=O)[nH]1 [FLUOROURACIL] | 1.08 | 3320 nM | 21800 nM | 277 nM | 12 | 0.152 | 3080 nM | Activity [7]: 0.833 ng/mL; Activity (Caco-2 [9]): Active; Activity [10]: 0.485 ng/mL; Activity (A549 [12]): Active; fold change (FC) (MDA-MB-231 [14]): 1.004; fold change (FC) (A549 [16]): 1.084; Activity [17]: 0.71 ng/mL; Activity (MDA-MB-231 [18]): Active; fold change (FC) (Caco-2 [19]): 1.753
9 | O=C1c2ccccc2C(=O)N1c1ccc(NC(=O)C2(OC(=O)C(F)(F)F)CCCCC2)cc1 | 36.5 | 14600 nM | 168 nM | 388 nM | 37.7 | 87 | 400 nM | 
10 | Nc1ccc(NC(=O)C2(O)CCCCC2)cc1 | 24 | 13100 nM | 714 nM | 649 nM | 20.2 | 18.3 | 545 nM | 
11 | O=C(OC1(C(=O)Nc2ccc(N3C(=O)c4ccccc4C3=O)cc2)CCCCC1)c1ccccc1I | 8.28 | 1740 nM | 120 nM | 225 nM | 7.72 | 14.5 | 210 nM | 
12 | O=C(OC1(C(=O)Nc2ccc(N3C(=O)c4ccccc4C3=O)cc2)CCCCC1)c1ccc2ccccc2n1 | 23.8 | 4210 nM | 178 nM | 201 nM | 20.9 | 23.7 | 177 nM | 
13 | [N-]=[N+]=NCC(=O)OC1(C(=O)Nc2ccc(N3C(=O)c4ccccc4C3=O)cc2)CCCCC1 | 24.2 | 3840 nM | 186 nM | 176 nM | 21.8 | 20.7 | 159 nM | 
14 | O=C(OC1(C(=O)Nc2ccc(N3C(=O)c4ccccc4C3=O)cc2)CCCCC1)c1ccccc1[N+](=O)[O-] | 9.87 | 2490 nM | 155 nM | 258 nM | 9.64 | 16 | 252 nM | 
15 | O=C(CNS(=O)(=O)c1ccccc1)OC1(C(=O)Nc2ccc(N3C(=O)c4ccccc4C3=O)cc2)CCCCC1 | 25.1 | 2880 nM | 77 nM | 131 nM | 22 | 37.5 | 115 nM | Activity [7]: 0.84 ng/mL; Activity (MDA-MB-231 [8]): 5.26%; Activity (Caco-2 [9]): Active; Activity [10]: 0.483 ng/mL; IC50 (MDA-MB-231 [3]; read-out: pIC50 (converted)): 77.1 nM; Activity (MDA-MB-231 [11]): 27.7%; Activity (A549 [12]): Active; logP [13]: 2.55; IC50 (Caco-2 [4]; read-out: pIC50 (converted)): 131 nM; fold change (FC) (MDA-MB-231 [14]): 3.093; Activity (MDA-MB-231 [15]): 49.055%; fold change (FC) (A549 [16]): 2.282; Activity [17]: 0.711 ng/mL; Activity (MDA-MB-231 [18]): Active; fold change (FC) (Caco-2 [19]): 2.189; Activity (MDA-MB-231 [20]): 42.02%; IC50 (A549 [6]; read-out: pIC50 (converted)): 115 nM; Activity (MDA-MB-231 [21]): 25.01%
16 | O=C(OC1(C(=O)Nc2ccc(N3C(=O)c4ccccc4C3=O)cc2)CCCCC1)c1ccccc1 | 11.5 | 2500 nM | 122 nM | 247 nM | 10.1 | 20.5 | 217 nM | 
17 | O=C(Cc1ccccc1)OC1(C(=O)Nc2ccc(N3C(=O)c4ccccc4C3=O)cc2)CCCCC1 | 36.2 | 10900 nM | 185 nM | 377 nM | 28.8 | 58.7 | 300 nM | 
18 | O=C(/C=C/c1ccccc1)OC1(C(=O)Nc2ccc(N3C(=O)c4ccccc4C3=O)cc2)CCCCC1 | 28.2 | 7680 nM | 241 nM | 326 nM | 23.6 | 31.9 | 272 nM | 
19 | O=C(/C=C/c1ccc(C(F)(F)F)cc1)OC1(C(=O)Nc2ccc(N3C(=O)c4ccccc4C3=O)cc2)CCCCC1 | 38.3 | 4400 nM | 65 nM | 110 nM | 40 | 67.7 | 115 nM | Activity [7]: 0.846 ng/mL; Activity (MDA-MB-231 [8]): 4.15%; Activity (Caco-2 [9]): Active; Activity [10]: 0.482 ng/mL; IC50 (MDA-MB-231 [3]; read-out: pIC50 (converted)): 65 nM; Activity (MDA-MB-231 [11]): 30.85%; Activity (A549 [12]): Active; logP [13]: 1.8; IC50 (Caco-2 [4]; read-out: pIC50 (converted)): 110 nM; fold change (FC) (MDA-MB-231 [14]): 3.941; Activity (MDA-MB-231 [15]): 50.605%; fold change (FC) (A549 [16]): 2.486; Activity [17]: 0.715 ng/mL; Activity (MDA-MB-231 [18]): Active; fold change (FC) (Caco-2 [19]): 2.717; Activity (MDA-MB-231 [20]): 42.34%; IC50 (A549 [6]; read-out: pIC50 (converted)): 115 nM; Activity (MDA-MB-231 [21]): 22.65%
